{"source": "patent US10744114B2", "about": "“Use of eupatilin as pharmaceutical composition for prevention and treatment of fibrosis using EMT inhibitory activity” (OSTEONEUROGEN INC., priority 2016, dated 2020)", "tested_on": "ONGHEPA1 cells", "assay": "Global gene expression analysis (RNA-Seq) and target gene analysis", "format": "cell-based, mouse", "details": "24 hr", "protocol": "For a mechanism for the therapeutic effect on fibrosis, the global gene expression of DMSO-treated ONGHEPA1 cells (a control group), ONGHEPA1 cells in which fibrosis was induced by TGF-β, and ONGHEPA1 cells treated with TGF-β and eupatilin was measured.\nThe cells were treated with DMSO, TGF-β or eupatilin for 24 hr, and total RNA was isolated to manufacture a library, after which about 10,000 expressed mRNA species in a total transcriptome of 30 Gb were analyzed using an Illumina High-seq sequencer.", "data": [{"compound": "COc1ccc(-c2cc(=O)c3c(O)c(OC)c(O)cc3o2)cc1OC", "note": "[eupatilin, 2-(3,4-dimethoxyphenyl)-5,7-dihydroxy-6-methoxy-chromone]", "values": [{"measurement": "expression of Fstl1", "setting": "TGF-β + eupatilin", "result": "inhibited to a level of almost zero"}, {"measurement": "Log2fc A disintegrin-like and metallopeptidase (reprolysin type) with thrombospondin type 1 motif 2 (Adamts2)", "setting": "TGF-β vs TGF-β+eupatilin", "result": 2.08}, {"measurement": "Log2fc A disintegrin-like and metallopeptidase with thrombospondin type 1 motif 12 (Adamts12)", "setting": "TGF-β vs TGF-β+eupatilin", "result": 2.09}, {"measurement": "Log2fc AXL receptor tyrosine kinase (Axl)", "setting": "TGF-β vs TGF-β+eupatilin", "result": "−infinite"}, {"measurement": "Log2fc Actin alpha 4 (Actn4)", "setting": "TGF-β vs TGF-β+eupatilin", "result": "infinite"}, {"measurement": "Log2fc Actin, gamma2 (Actg2)", "setting": "TGF-β vs TGF-β+eupatilin", "result": "−5.83"}, {"measurement": "Log2fc ArfGAP with SH3 domain, ankyrin repeat and PH domain 1 (Asap1)", "setting": "TGF-β vs TGF-β+eupatilin", "result": "−infinite"}, {"measurement": "Log2fc Aurora kinase A (Aurka)", "setting": "TGF-β vs TGF-β+eupatilin", "result": "−15.3"}, {"measurement": "Log2fc BTAF1 RNA polymerase II, B-TFIID transcription factor-associated (Btaf1)", "setting": "TGF-β vs TGF-β+eupatilin", "result": "−infinite"}, {"measurement": "Log2fc C-terminal-binding protein 2 (Ctbp2)", "setting": "TGF-β vs TGF-β+eupatilin", "result": "infinite"}, {"measurement": "Log2fc Caldesmon 1 (Cald1)", "setting": "TGF-β vs TGF-β+eupatilin", "result": "infinite"}, {"measurement": "Log2fc Calreticulin (Calr)", "setting": "TGF-β vs TGF-β+eupatilin", "result": "−1.74"}, {"measurement": "Log2fc Calumenin (Calu)", "setting": "TGF-β vs TGF-β+eupatilin", "result": "infinite"}, {"measurement": "Log2fc Caveolin 1, Caveolae protein (Cav1)", "setting": "TGF-β vs TGF-β+eupatilin", "result": 1.76}, {"measurement": "Log2fc Cell cycle associated protein 1 (Caprin1)", "setting": "TGF-β vs TGF-β+eupatilin", "result": "−infinite"}, {"measurement": "Log2fc Cell migration inducing protein, hyaluronan binding (Cemip)", "setting": "TGF-β vs TGF-β+eupatilin", "result": "−2.75"}, {"measurement": "Log2fc Coatomer protein complex, subunit gamma 1 (Copg1)", "setting": "TGF-β vs TGF-β+eupatilin", "result": "infinite"}, {"measurement": "Log2fc Collagen type 1 alpha 1 (Col1a1)", "setting": "TGF-β vs TGF-β+eupatilin", "result": "−1.64"}, {"measurement": "Log2fc Collagen type VII alpha1 (Col7a1)", "setting": "TGF-β vs TGF-β+eupatilin", "result": "−15.2"}, {"measurement": "Log2fc Collagen type XV, alpha 1 (Col5a1)", "setting": "TGF-β vs TGF-β+eupatilin", "result": 2.26}, {"measurement": "Log2fc Collagen, type III, alpha 1 (Col3a1)", "setting": "TGF-β vs TGF-β+eupatilin", "result": "infinite"}, {"measurement": "Log2fc Collagen, type XI, alpha 1 (Col11a1)", "setting": "TGF-β vs TGF-β+eupatilin", "result": "−3.11"}, {"measurement": "Log2fc Collagen, type XII, alpha 1 (Col12a1)", "setting": "TGF-β vs TGF-β+eupatilin", "result": 2.02}, {"measurement": "Log2fc Colony stimulating factor 1 (macrophage) (Csf1)", "setting": "TGF-β vs TGF-β+eupatilin", "result": 2.15}, {"measurement": "Log2fc Crystallin, zeta (quinone reductase)-like 1 (Cryzl1)", "setting": "TGF-β vs TGF-β+eupatilin", "result": "infinite"}, {"measurement": "Log2fc Cyclin D2 (Ccnd2)", "setting": "TGF-β vs TGF-β+eupatilin", "result": 2.29}, {"measurement": "Log2fc Dihydropyrimidinase-like 3 (Dpysl3)", "setting": "TGF-β vs TGF-β+eupatilin", "result": "infinite"}, {"measurement": "Log2fc Doublecortin-like kinase 1 (Dclk1)", "setting": "TGF-β vs TGF-β+eupatilin", "result": 1.54}, {"measurement": "Log2fc Dynein cytoplasmic 1 heavy chain 1 (Dync1h1)", "setting": "TGF-β vs TGF-β+eupatilin", "result": "−infinite"}, {"measurement": "Log2fc Dysferlin (Dysf)", "setting": "TGF-β vs TGF-β+eupatilin", "result": 2.06}, {"measurement": "Log2fc EH-domain containing 2 (Ehd2)", "setting": "TGF-β vs TGF-β+eupatilin", "result": "infinite"}, {"measurement": "Log2fc Elastin (Eln)", "setting": "TGF-β vs TGF-β+eupatilin", "result": 3.28}, {"measurement": "Log2fc Endoglin (Eng)", "setting": "TGF-β vs TGF-β+eupatilin", "result": "−infinite"}, {"measurement": "Log2fc Endoplasmic reticulum-golgi intermediate compartment 1 (ERGIC1)", "setting": "TGF-β vs TGF-β+eupatilin", "result": "−1.26"}, {"measurement": "Log2fc Ephrin B2 (Efnb2)", "setting": "TGF-β vs TGF-β+eupatilin", "result": 1.92}, {"measurement": "Log2fc Epidermal growth factor-containing fibulin-like extracellular matrix protein 2 (Efemp2)", "setting": "TGF-β vs TGF-β+eupatilin", "result": 1.66}, {"measurement": "Log2fc Exocyst complex component 4 (Exoc4)", "setting": "TGF-β vs TGF-β+eupatilin", "result": 2.9}, {"measurement": "Log2fc Family with sequence similarity 175, member B (Fam175b)", "setting": "TGF-β vs TGF-β+eupatilin", "result": "−infinite"}, {"measurement": "Log2fc Fibronectin 1 (Fn1)", "setting": "TGF-β vs TGF-β+eupatilin", "result": "infinite"}, {"measurement": "Log2fc Fibronectin type III domain containing 1 (Fndc1)", "setting": "TGF-β vs TGF-β+eupatilin", "result": 1.75}, {"measurement": "Log2fc Follistatin-like 1 (Fstl1)", "setting": "TGF-β vs TGF-β+eupatilin", "result": "infinite"}, {"measurement": "Log2fc Fras 1 related extracellular matrix protein 1 (Frem1)", "setting": "TGF-β vs TGF-β+eupatilin", "result": 2.36}, {"measurement": "Log2fc Heat shock protein 90, alpha (cytosolic), class A member 1(Hsp90aa1)", "setting": "TGF-β vs TGF-β+eupatilin", "result": "infinite"}, {"measurement": "Log2fc Heparan sulfate 6-O-sulfotransferase 2 (Hs6st2)", "setting": "TGF-β vs TGF-β+eupatilin", "result": 3.26}, {"measurement": "Log2fc Importin-4 (Ipo4)", "setting": "TGF-β vs TGF-β+eupatilin", "result": "−infinite"}, {"measurement": "Log2fc Inhibition beta-A (Inhba)", "setting": "TGF-β vs TGF-β+eupatilin", "result": 2.19}, {"measurement": "Log2fc Inositol hexakisphosphate kinase 1 (Ip6k1)", "setting": "TGF-β vs TGF-β+eupatilin", "result": "−infinite"}, {"measurement": "Log2fc Integral beta 5 (Itgb5)", "setting": "TGF-β vs TGF-β+eupatilin", "result": "−infinite"}, {"measurement": "Log2fc Interleukin 18 receptor accessory protein (Il18rap)", "setting": "TGF-β vs TGF-β+eupatilin", "result": 1.69}, {"measurement": "Log2fc Intersectin 1 (SH3 domain protein 1A) (Itsn1)", "setting": "TGF-β vs TGF-β+eupatilin", "result": "infinite"}, {"measurement": "Log2fc Laminin, alpha 4 (Lama4)", "setting": "TGF-β vs TGF-β+eupatilin", "result": "−1.29"}, {"measurement": "Log2fc Latent transforming growth factor beta binding protein 1 (Ltbp1)", "setting": "TGF-β vs TGF-β+eupatilin", "result": 3.32}, {"measurement": "Log2fc Latent transforming growth factor beta binding protein 2 (Ltbp2)", "setting": "TGF-β vs TGF-β+eupatilin", "result": "−infinite"}]}]}
